In DBAASP one finds MIC data, which are given here for four compounds.

Test systems include Escherichia coli W3110; Staphylococcus aureus; Enterococcus faecalis; Vibrio parahaemolyticus; Lactococcus garvieae; Streptococcus iniae; Vibrio harveyi; Vibrio alginolyticus; Escherichia coli D31; Micrococcus luteus; Bacillus megaterium Bm11; Candida tropicalis; Mammaliicoccus lentus.
Common to all, as to assay: ≥ marks a high value that may be exact or a test limit, other limits are often not marked, values filed in µg/mL are converted to µM
The test system of assay [1] is Streptococcus sobrinus ATCC 33478.
Assay [2] deals with Streptococcus sanguinis NY101.
In assay [3] the test system is Pseudomonas aeruginosa PAK.
In assay [4] the test system is Streptococcus mutans UA159.
The subject of assay [5] is Streptococcus equinus BCRC 14729.
The subject of assay [6] is Staphylococcus xylosus BCRC 12930.
In assay [7] the test system is Staphylococcus aureus BCRC 10780.
In assay [8] the test system is Vibrio anguillarum serotype O1.
For assay [9], the system named is Klebsiella aerogenes BCRC 10370.
Assay [10] concerns Enterobacter cloacae BCRC 10401.
For assay [11], the system named is Escherichia coli BCRC 10675.
The test system of assay [12] is Vibrio alginolyticus BCRC 12829.
The test system of assay [13] is Listeria monocytogenes BCRC 14845.
The test system of assay [14] is Pseudomonas aeruginosa BCRC 10944.
Assay [15] has as its system Staphylococcus aureus BCRC 10781.
For assay [16], the system named is Yersinia enterocolitica BCRC 13999.
In assay [17] the test system is Vibrio parahaemolyticus BCRC 10806.
Assay [18] has as its system Klebsiella oxytoca BCRC 13985.
Assay [19] deals with Klebsiella pneumoniae K6 ATCC 700603.
For assay [20], the system named is Salmonella enterica subsp. enterica serovar Typhimurium ATCC 700408.
Assay [21] relates to Pseudomonas syringae pv. tabaci.
For assay [22], the system named is Phytophthora nicotianae PG344.
Assay [23] deals with Yersinia pseudotuberculosis YPIII.

One may read the MIC as the lowest concentration found to suppress growth.

Each structure is given as a SMILES string. In brackets after ≈: the same amount, converted by molar mass.

Regarding `CC[C@H](C)[C@H](NC(=O)[C@H](Cc1ccccc1)NC(=O)CNC(=O)CNC(=O)CNC(=O)[C@H](Cc1ccccc1)NC(=O)[C@H](Cc1cnc[nH]1)NC(=O)[C@H](CC(C)C)NC(=O)[C@H](Cc1cnc[nH]1)NC(=O)[C@H](Cc1ccccc1)NC(=O)[C@H](Cc1cnc[nH]1)NC(=O)[C@@H](N)Cc1ccccc1)C(=O)N[C@@H](CCCCN)C(=O)N[C@@H](Cc1cnc[nH]1)C(=O)N[C@@H](Cc1ccccc1)C(=O)N[C@H](C(=O)N[C@@H](Cc1cnc[nH]1)C(=O)N[C@@H](CCCN=C(N)N)C(=O)N[C@@H](Cc1ccccc1)C(N)=O)[C@@H](C)CC` [FHFHLHFGGGFIKHFIHRF], the MIC in assay [1] came to 26.2 µM (≈ 62.5 µg/mL); against Escherichia coli W3110, 26.2 µM (≈ 62.5 µg/mL); in assay [2], 26.2 µM (≈ 62.5 µg/mL); in assay [3], 26.2 µM (≈ 62.5 µg/mL); against Staphylococcus aureus, 52.5 µM (≈ 125 µg/mL); in assay [4] it was 13.4 µM (≈ 32 µg/mL). In the assay on Enterococcus faecalis, this compound gave an MIC of 26.2 µM (≈ 62.5 µg/mL).
Regarding `CC[C@H](C)[C@H](NC(=O)[C@@H](NC(=O)[C@H](Cc1ccccc1)NC(=O)[C@H](Cc1ccc(O)cc1)NC(=O)[C@H](CCCCN)NC(=O)[C@H](CCCCN)NC(=O)[C@H](CC(C)C)NC(=O)[C@H](C)NC(=O)[C@H](CC(N)=O)NC(=O)[C@H](C)NC(=O)CN)[C@@H](C)O)C(=O)N[C@@H](CC(C)C)C(=O)N[C@@H](CCCCN)C(=O)N[C@@H](CCCCN)C(=O)N[C@@H](Cc1ccccc1)C(=O)N[C@@H](Cc1ccccc1)C(=O)N[C@@H](CCCCN)C(=O)N[C@@H](CC(C)C)C(=O)N[C@@H](C)C(=O)N[C@@H](Cc1c[nH]c2ccccc12)C(=O)O` [GANALKKYFTILKKFFKLAW], the MIC in [5] is ≥ 53.6 µM; in assay [6], 6.7 µM (≈ 16 µg/mL); in assay [7] it was 6.7 µM (≈ 16 µg/mL); in assay [8], 6.7 µM (≈ 16 µg/mL); in the assay with Vibrio parahaemolyticus, 6.7 µM (≈ 16 µg/mL); in assay [9], 6.7 µM (≈ 16 µg/mL). In addition, the MIC in assay [10] came out at 3.35 µM (≈ 8 µg/mL); in [11], 3.35 µM (≈ 8 µg/mL); against Lactococcus garvieae it was 26.8 µM (≈ 64 µg/mL); in assay [12], 26.8 µM (≈ 64 µg/mL); in assay [13], 6.7 µM (≈ 16 µg/mL); in assay [14] it was 6.7 µM (≈ 16 µg/mL). Also, the MIC in assay [15] is 6.7 µM (≈ 16 µg/mL); against Streptococcus iniae, 26.8 µM (≈ 64 µg/mL); with Vibrio harveyi, 1.68 µM (≈ 4 µg/mL); in [16] it was 13.4 µM (≈ 32 µg/mL); in assay [17], 3.35 µM (≈ 8 µg/mL); with Vibrio alginolyticus it was 3.35 µM (≈ 8 µg/mL). In [18], this compound displayed an MIC of 26.8 µM (≈ 64 µg/mL).
`CC[C@H](C)[C@H](NC(=O)[C@H](Cc1ccc(O)cc1)NC(=O)[C@@H](NC(=O)[C@@H]1CCCN1C(=O)[C@H](CCCN=C(N)N)NC(=O)[C@H](CC(N)=O)NC(=O)[C@H](CC(N)=O)NC(=O)CN)C(C)C)C(=O)N1CCC[C@H]1C(=O)N[C@@H](CCC(N)=O)C(=O)N1CCC[C@H]1C(=O)N[C@@H](CCCN=C(N)N)C(=O)N1CCC[C@H]1C(=O)N1CCC[C@H]1C(=O)N[C@@H](Cc1cnc[nH]1)C(=O)N1CCC[C@H]1C(=O)N[C@@H](CC(C)C)C(N)=O` [GNNRPVYIPQPRPPHPL]: the MIC in the assay on Escherichia coli D31 was ≥ 65.6 µM; in assay [19], ≥ 32.8 µM; in assay [20], ≥ 32.8 µM.
On to `C[C@H](NC(=O)[C@@H](N)CO)C(=O)N1CCC[C@H]1C(=O)N[C@@H](CCCN=C(N)N)C(=O)NCC(=O)N[C@H]1CSSC[C@@H](C(=O)N[C@@H](CCCCN)C(N)=O)NC(=O)[C@@H]2CCCN2C(=O)[C@H](CCCCN)NC(=O)[C@@H]2CCCN2C(=O)[C@@H]2CCCN2C(=O)[C@H](Cc2ccc(O)cc2)NC(=O)[C@H](CO)NC(=O)[C@H](CCCCN)NC(=O)[C@H]([C@@H](C)O)NC(=O)[C@H](Cc2c[nH]c3ccccc23)NC1=O` [SAPRGCWTKSYPPKPCK], for which the MIC in assay [21] is ≥ 80 µM; in [22], ≥ 32 µM; in the assay on Micrococcus luteus, 5 µM (≈ 9.52 µg/mL); against Bacillus megaterium Bm11, 3 µM (≈ 5.71 µg/mL); against Candida tropicalis it was 7.4 µM (≈ 14.1 µg/mL); in the assay on Mammaliicoccus lentus, 7 µM (≈ 13.3 µg/mL). In addition, the minimum inhibitory concentration (MIC) in [23] was 9 µM (≈ 17.1 µg/mL).
